The source of these data is publication PMC6914834, “New Dihydroisocoumarin Root Growth Inhibitors From the Sponge-Derived Fungus Aspergillus sp. NBUF87” (Frontiers in Microbiology, 2019).

Assay [1] deals with CCRF-CEM. The experiment in a line: In vitro cancer cell cytotoxicity (MTT), CCRF-CEM. Format: cell-based. To be noted: Homo sapiens, positive control, quantity not given. The procedure:
(§1) 7-Ethyl-10-hydroxycamptothecin (1.3, 10.8, 9.9, and 4.2 nM, respectively) was used as the positive control against four above-mentioned human cancer cell lines.

Assay [2] relates to HCT-116. Put plainly: In vitro cancer cell cytotoxicity (MTT), HCT-116. Particulars: Homo sapiens, positive control, quantity not given. The class given is cell-based. Here is the method:
as §1

The test system of assay [3] is MDA-MB-231. Put plainly: In vitro cancer cell cytotoxicity (MTT), MDA-MB-231. To be noted: Homo sapiens, MDA-MB-231, read-out: cytotoxicity of positive control, MDA-MB-231.
Assay [4] has as its system AGS. The experiment in a line: In vitro cancer cell cytotoxicity (MTT), AGS. To be noted: Homo sapiens, positive control, quantity not given. Format: cell-based. Here is the method: as §1
The test system of assay [5] is Plasmodium falciparum W2. Put plainly: In vitro antimalarial activity assay. Format: cell-based. Here is the method:
The in vitro antimalarial activity of the compounds was evaluated against the parasite (Plasmodium falciparum W2), which was cultured continuously according to a previously described method ([Lazaro et al., 2006]).

The subject of assay [6] is methicillin-resistant Staphylococcus aureus ATCC43300. The experiment in a line: Antibacterial activity assay, MRSA. To be noted: 96-well plates, read-out: MIC, methicillin-resistant S. aureus ATCC43300. Format: cell-based. The procedure: Compounds 1−11 were evaluated for their antibacterial activities against methicillin-resistant Staphylococcus aureus ATCC43300 and Escherichia coli ATCC25922 in 96-well plates according to the method described by [Gu et al. (2018)]. Ciprofloxacin was selected as a positive control against the above-mentioned bacteria with MIC values of 0.5 μg/mL.

In assay [7] the test system is Arabidopsis thaliana Columbia-0 (Col-0). The experiment in a line: Plant growth response assay (root growth). The class given is in vivo. To be noted: 100 μM. Here is the method: Arabidopsis thaliana Col-0, a model organism for plant growth and development, was used to test each isolated compound according to a previously described protocol ([Li X. et al., 2018]; [Huang et al., 2019]). Plants grown in 2% (v/v) DMSO were used as the negative control. Seeds of Col-0 incubated in 1 μM of 6-benzylaminopurine (BAP) were selected as the positive control. Test samples were dissolved in 2% (v/v) DMSO at various test concentrations for the experiment.

Setting [8] is: W2, in vitro, positive controls, read-out: EC50, P. falciparum W2 (positive controls).

SMILES strings stand for the structures. Values after ≈ are worked out from the molar mass of the structure shown. Like-named read-outs stand apart in the source and are kept apart here.

With `CCc1c2c(nc3ccc(O)cc13)-c1cc3c(c(=O)n1C2)COC(=O)[C@]3(O)CC` [7-Ethyl-10-hydroxycamptothecin], the IC50 amounted to 1.3 nM in assay [1], 9.9 nM in assay [2], 10.8 nM in assay [3] and 4.2 nM in assay [4].
Consider `CCN(CC)CCCC(C)Nc1ccnc2cc(Cl)ccc12` (stereo not shown) [Chloroquine], for which, in assay [5] (W2, read-out: EC50, P. falciparum W2 (positive controls)), the EC50 amounted to 112 nM.
On to `O=C(O)c1cn(C2CC2)c2cc(N3CCNCC3)c(F)cc2c1=O` [Ciprofloxacin], for which the MIC in assay [6] was determined as 0.5 µg/mL (≈ 1.51 µM).
`C[C@H](O)CCC[C@@H]1Cc2c(O)ccc(O)c2C(=O)O1` [Compound 1, aspergimarin A]: the “root growth inhibitory activity in plant growth response assay” value in assay [7] was “root growth inhibitory activity was observed”. Besides, the “inhibitory effect on lateral root growth of Col-0” value in assay [7] (10 days after seed germination) is recorded as “significant inhibitory effect”.
As to `C[C@H](O)CCC[C@H]1OC(=O)c2c(O)cccc2[C@@H]1O` [Compound 5, aspergimarin E], the “root growth inhibitory activity in plant growth response assay” value in assay [7] is reported as “root growth inhibitory activity was observed”. In addition, in assay [7] (10 days after seed germination), the “inhibition of primary root growth of Col-0” value is “notable inhibition” and the “inhibitory effect on lateral root growth of Col-0” value is “notable inhibition”.
`C[C@@H]1CC[C@H]2[C@@H](C)C(=O)O[C@@H]3O[C@@]4(C)CC[C@@H]1[C@]32OO4` [artemisinin]: in assay [5] (setting [8]), the concentration for a half-maximal effect (EC50) turned out to be 160 nM.
With `O=C1C(O)=C([C@H]2CC[C@H](c3ccc(Cl)cc3)CC2)C(=O)c2ccccc21` [atovaquone], the half-maximal effective concentration (EC50) in assay [5] (setting [8]) stood at 2.5 nM.

Usually EC50 stands for the concentration giving half of the maximal effect. As a reminder, the MIC is the lowest concentration that inhibits growth of the organism.
